In publication PMC3876937 (Protein expression and purification, 2013):

Target: T1, YGR257Cp (Mtm1p) (Saccharomyces cerevisiae, UniProt P53320)
T1 sequence (P53320 1-366): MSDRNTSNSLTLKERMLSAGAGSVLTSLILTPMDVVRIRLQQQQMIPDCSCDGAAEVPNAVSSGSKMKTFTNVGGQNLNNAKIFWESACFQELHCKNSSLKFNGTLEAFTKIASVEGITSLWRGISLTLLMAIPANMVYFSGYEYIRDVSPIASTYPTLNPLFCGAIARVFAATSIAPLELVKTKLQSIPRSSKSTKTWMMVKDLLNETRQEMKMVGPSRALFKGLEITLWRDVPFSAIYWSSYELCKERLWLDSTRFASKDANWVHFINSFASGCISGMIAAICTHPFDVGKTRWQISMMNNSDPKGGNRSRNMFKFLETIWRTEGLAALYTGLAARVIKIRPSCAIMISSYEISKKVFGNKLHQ
Assay: intrinsic tryptophan fluorescence quenching titration
Format: binding

- Kd: 700 ± 20 nM
Compound: Cc1ncc(COP(=O)(O)O)c(C=O)c1O [pyridoxal 5′-phosphate]
